{
  "source": "patent US20260285856A1",
  "about": "“A 1,5-DIHYDRO-4H-PYRROLO[3,2-C] PYRIDIN-4-ONE FOR USE IN THE TREATMENT OF CANCER” (ANTARES THERAPEUTICS, INC., priority 2023, published 2026)",
  "format_in_all_cases": "cell-based",
  "key": {"[1]": {"molecular_target": "T1, EGFR exon 20 SVD Ins D770_N771 (Homo sapiens, UniProt P00533, INS770SVD)", "T1 construct": "expressed in transfected cells; host or cells: Ba/F3 (murine pro-B cells), retroviral transduction, puromycin selection, IL3 withdrawal", "T1 sequence (P00533 with tags, fused parts or gaps INS770SVD)": "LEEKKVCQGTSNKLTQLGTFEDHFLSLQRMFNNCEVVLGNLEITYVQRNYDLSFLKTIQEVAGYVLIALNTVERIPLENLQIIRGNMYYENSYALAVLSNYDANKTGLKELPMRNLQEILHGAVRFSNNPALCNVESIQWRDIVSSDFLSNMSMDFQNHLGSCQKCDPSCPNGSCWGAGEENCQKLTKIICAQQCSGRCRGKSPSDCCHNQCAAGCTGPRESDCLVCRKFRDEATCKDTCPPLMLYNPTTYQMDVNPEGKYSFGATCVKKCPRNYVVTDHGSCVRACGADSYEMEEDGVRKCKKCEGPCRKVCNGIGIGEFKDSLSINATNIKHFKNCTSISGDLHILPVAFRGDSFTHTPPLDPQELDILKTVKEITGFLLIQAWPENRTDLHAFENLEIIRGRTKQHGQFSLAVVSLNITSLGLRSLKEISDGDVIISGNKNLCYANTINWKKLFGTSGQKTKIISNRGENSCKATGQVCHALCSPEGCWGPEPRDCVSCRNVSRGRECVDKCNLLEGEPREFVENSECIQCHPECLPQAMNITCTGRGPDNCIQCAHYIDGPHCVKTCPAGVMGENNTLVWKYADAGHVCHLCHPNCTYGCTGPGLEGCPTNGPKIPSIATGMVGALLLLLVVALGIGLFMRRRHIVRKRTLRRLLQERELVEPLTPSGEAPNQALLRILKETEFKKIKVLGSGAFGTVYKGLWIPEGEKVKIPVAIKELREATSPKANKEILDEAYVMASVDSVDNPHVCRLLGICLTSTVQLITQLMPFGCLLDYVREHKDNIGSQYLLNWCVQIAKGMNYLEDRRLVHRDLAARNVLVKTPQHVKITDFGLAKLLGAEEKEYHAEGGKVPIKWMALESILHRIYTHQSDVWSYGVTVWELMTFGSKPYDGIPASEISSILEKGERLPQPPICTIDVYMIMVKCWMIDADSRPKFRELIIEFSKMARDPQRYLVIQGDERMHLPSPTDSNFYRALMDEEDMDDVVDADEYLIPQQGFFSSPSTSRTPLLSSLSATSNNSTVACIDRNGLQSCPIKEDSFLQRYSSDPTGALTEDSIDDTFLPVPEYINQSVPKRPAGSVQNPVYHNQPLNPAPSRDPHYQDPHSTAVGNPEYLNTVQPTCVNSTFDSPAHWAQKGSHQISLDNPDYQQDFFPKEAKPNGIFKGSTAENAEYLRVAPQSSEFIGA", "experiment": "Ba/F3 cell viability (CellTiter-Glo), EGFR exon 20 SVD insertion", "conditions": "Ba/F3 cells expressing EGFR exon 20 SVD Ins D770_N771, 72 hours, read-out: BaF3 SVD IC50", "from_the_text": "(§1) Cell lines are generated by transducing Ba/F3 cells with retroviruses containing vectors with EGFR WT, EGFR exon 20 NPG Ins D770_N771, EGFR exon 20 ASV Ins V769_D770, EGFR exon 20 SVD Ins D770_N771, or EGFR exon 20 FQEA Ins A763_V764 genes and a puromycin selection marker. Transduced cells are selected with puromycin for 7 days and are then be transferred into culture media without Interleukin 3 (IL3). EGFR WT cells are maintained with supplemental EGF. Surviving cells are confirmed to express EGFR by Western blot and maintained as a pool. The IC50 data are included in Table 6.\n(§2) • 1.1 Cells are harvested from flask into cell culture medium and the cell number counted. • 1.2 Cells are diluted with culture medium to the desired density and 40 NL of cell suspension is added into each well of 384-well cell culture plate and the seeding density is 600 cells/well.\n(§3) • 2.1 Test compounds are dissolved to 10 mM in a DMSO stock solution. […]\n(§4) • 3.1 Plates are removed from incubators and equilibrated at room temperature for 15 minutes. • 3.2 Thaw the CellTiter Glo reagents and allow to equilibrate to room temperature before the experiment. • 3.3 Add 40 μL of CellTiter-Glo reagent into each well (at 1:1 to culture medium). Then place the plates at room temperature for 30 min followed by reading on EnVision.\n(§5) • 4.1 Inhibition activity is calculated following the formula below: […]"}, "[2]": {"molecular_target": "T2, EGFR exon 20 NPG Ins D770_N771 (Homo sapiens, UniProt P00533, INS770NPG)", "T2 construct": "expressed in transfected cells; host or cells: Ba/F3 (murine pro-B cells), retroviral transduction, puromycin selection, IL3 withdrawal", "T2 sequence (P00533 with tags, fused parts or gaps INS770NPG)": "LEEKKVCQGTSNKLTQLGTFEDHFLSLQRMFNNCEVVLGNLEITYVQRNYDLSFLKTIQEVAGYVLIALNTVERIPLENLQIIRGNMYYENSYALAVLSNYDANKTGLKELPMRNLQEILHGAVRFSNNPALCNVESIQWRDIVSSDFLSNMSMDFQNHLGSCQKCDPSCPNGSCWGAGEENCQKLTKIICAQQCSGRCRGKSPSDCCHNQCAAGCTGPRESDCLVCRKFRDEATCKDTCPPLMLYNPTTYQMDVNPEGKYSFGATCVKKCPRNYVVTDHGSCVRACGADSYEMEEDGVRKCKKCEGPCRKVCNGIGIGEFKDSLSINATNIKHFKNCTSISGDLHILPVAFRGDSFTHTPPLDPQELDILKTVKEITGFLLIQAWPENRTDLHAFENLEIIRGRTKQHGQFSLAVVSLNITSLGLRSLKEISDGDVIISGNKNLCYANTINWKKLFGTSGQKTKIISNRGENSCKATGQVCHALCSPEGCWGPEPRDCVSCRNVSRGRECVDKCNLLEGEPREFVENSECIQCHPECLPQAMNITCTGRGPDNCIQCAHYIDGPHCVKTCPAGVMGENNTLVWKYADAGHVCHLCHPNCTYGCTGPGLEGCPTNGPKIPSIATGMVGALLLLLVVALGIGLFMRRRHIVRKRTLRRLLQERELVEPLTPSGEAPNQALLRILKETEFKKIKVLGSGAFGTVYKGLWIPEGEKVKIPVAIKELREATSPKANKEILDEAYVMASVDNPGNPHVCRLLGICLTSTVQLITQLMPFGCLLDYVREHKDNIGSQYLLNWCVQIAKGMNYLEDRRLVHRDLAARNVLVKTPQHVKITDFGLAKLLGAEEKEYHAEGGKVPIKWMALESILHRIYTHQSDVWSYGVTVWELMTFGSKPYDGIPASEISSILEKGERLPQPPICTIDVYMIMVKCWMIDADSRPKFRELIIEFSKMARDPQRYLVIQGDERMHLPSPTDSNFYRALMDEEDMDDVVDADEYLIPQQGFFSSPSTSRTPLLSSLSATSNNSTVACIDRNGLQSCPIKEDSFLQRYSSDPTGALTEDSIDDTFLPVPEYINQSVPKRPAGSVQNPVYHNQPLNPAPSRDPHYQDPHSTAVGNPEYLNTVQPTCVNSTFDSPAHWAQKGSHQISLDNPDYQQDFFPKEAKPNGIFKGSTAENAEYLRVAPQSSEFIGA", "experiment": "Ba/F3 cell viability (CellTiter-Glo), EGFR exon 20 NPG insertion", "conditions": "Ba/F3 cells expressing EGFR exon 20 NPG Ins D770_N771, 72 hours, read-out: BaF3 NPG IC50", "from_the_text": "as §1, §2, §3, §4, §5"}, "EGFR WT": {"molecular_target": "T3, EGFR WT (Homo sapiens, UniProt P00533)", "T3 construct": "expressed in transfected cells; host or cells: Ba/F3 (murine pro-B cells), retroviral transduction; maintained with supplemental EGF", "T3 sequence (P00533 25-1210)": "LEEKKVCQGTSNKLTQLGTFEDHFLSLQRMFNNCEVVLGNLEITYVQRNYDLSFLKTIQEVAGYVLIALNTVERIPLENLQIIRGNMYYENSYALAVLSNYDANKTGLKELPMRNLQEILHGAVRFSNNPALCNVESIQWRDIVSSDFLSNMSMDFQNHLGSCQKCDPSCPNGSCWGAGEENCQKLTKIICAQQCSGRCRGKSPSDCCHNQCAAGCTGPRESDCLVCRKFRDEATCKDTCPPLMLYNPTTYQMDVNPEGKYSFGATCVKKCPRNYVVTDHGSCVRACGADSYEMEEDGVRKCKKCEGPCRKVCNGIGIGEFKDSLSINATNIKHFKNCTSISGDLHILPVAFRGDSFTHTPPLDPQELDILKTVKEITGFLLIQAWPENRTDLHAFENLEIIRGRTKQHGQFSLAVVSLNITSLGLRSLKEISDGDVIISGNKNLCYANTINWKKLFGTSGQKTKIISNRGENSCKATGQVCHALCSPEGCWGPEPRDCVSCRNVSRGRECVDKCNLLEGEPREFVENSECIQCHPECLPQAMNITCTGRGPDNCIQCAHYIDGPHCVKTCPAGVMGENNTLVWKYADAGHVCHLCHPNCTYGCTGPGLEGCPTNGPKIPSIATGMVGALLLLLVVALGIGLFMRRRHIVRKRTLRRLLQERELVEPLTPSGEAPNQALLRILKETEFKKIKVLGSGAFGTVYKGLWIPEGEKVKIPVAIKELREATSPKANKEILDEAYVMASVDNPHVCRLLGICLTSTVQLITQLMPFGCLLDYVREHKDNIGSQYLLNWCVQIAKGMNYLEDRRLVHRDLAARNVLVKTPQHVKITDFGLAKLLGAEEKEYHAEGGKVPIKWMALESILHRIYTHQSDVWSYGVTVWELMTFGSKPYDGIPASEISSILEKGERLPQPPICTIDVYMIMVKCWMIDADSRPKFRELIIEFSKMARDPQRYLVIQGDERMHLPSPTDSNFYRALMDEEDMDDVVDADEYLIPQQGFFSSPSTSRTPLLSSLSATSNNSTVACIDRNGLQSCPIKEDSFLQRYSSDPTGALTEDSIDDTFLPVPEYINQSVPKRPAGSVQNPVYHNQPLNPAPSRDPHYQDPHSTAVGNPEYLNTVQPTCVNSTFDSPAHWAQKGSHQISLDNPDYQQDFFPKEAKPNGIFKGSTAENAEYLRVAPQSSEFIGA", "experiment": "Ba/F3 cell viability (CellTiter-Glo), EGFR WT", "conditions": "Ba/F3 cells expressing EGFR WT, supplemental EGF, 72 hours, read-out: BaF3 WT IC50", "from_the_text": "as §1, §2, §3, §4, §5"}, "[3]": {"molecular_target": "EGFR phosphorylation (pEGFR) in CUTO14 cells (Homo sapiens, UniProt P00533, INS769ASV)", "experiment": "EGFR phosphorylation (pEGFR) AlphaLISA in CUTO14 cells", "conditions": "2 hours", "from_the_text": "EGFR mutant Ba/F3 cells were generated by transduction with retrovirus containing vectors expressing EGFR exon 20 NPG Ins D770_N771, EGFR exon 20 ASV Ins V769_D770, or EGFR exon 20 SVD Ins D770_N771 genes along with a puromycin selection marker. Transduced cells are selected with puromycin for 7 days and are then be transferred into culture media without Interleukin 3 (IL3). Surviving cells are confirmed to express EGFR by Western blot and maintained as a pool. CUTO14 cells were obtained from Dr. Robert C. Doebele at the University of Colorado. The IC50 data are included in Table 6.\nas §2, with “μL” for “NL”, “50K cells/well (Ba/F3) or 12.5K cells/well (CUTO14).” for “600 cells/well.”\n• 2.1 Test compounds are dissolved to 10 mM in a DMSO stock solution. 45 μL of stock solution is transferred to a 384 polypropylene plate (pp-plate). […] Mix well on the shaker, seal and wrap in aluminum foil and incubate 1.5 hrs at room temperature in the dark • 3.5 Transfer 18.5 μL mixture to OptiPlate 384, and read using an Envision."}, "[4]": {"molecular_target": "T4, EGFR exon 20 ASV Ins V769_D770 (Homo sapiens, UniProt P00533, INS769ASV)", "T4 construct": "expressed in transfected cells; host or cells: Ba/F3 (murine pro-B cells), retroviral transduction, puromycin selection, IL3 withdrawal", "T4 sequence (P00533 with tags, fused parts or gaps INS769ASV)": "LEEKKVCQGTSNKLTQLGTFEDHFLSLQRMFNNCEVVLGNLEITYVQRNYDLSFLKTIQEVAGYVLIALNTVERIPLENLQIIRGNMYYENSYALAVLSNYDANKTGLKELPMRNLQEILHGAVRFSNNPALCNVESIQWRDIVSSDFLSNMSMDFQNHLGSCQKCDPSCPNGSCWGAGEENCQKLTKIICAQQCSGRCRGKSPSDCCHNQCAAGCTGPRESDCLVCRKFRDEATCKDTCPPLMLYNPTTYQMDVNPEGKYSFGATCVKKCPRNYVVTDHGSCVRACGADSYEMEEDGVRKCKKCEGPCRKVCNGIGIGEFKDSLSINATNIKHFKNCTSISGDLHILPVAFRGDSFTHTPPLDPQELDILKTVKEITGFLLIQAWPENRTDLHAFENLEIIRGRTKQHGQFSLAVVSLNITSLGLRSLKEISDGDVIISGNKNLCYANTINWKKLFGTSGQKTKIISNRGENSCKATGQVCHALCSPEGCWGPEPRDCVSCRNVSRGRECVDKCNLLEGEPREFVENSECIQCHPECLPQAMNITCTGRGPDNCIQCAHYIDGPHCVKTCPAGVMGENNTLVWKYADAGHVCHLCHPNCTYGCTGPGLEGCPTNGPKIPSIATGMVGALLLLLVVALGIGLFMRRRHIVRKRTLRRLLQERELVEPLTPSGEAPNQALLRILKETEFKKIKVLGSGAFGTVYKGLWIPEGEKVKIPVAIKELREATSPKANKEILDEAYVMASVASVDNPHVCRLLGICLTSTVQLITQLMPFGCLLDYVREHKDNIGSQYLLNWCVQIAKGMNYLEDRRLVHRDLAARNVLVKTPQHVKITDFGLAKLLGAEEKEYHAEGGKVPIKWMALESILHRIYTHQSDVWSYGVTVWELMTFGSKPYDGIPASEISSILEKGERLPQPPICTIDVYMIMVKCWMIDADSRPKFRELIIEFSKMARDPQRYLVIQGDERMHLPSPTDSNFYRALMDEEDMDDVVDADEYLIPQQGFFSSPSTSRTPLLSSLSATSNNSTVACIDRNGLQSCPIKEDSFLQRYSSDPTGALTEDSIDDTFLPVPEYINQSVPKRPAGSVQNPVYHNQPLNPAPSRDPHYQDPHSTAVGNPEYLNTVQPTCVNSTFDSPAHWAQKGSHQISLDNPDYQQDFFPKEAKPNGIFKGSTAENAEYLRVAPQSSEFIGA", "experiment": "Ba/F3 cell viability (CellTiter-Glo), EGFR exon 20 ASV insertion", "conditions": "Ba/F3 cells expressing EGFR exon 20 ASV Ins V769_D770, 72 hours, read-out: BaF3 ASV IC50", "from_the_text": "as §1, §2, §3, §4, §5"}, "[5]": {"system": "EGFR mutant versus EGFR WT", "experiment": "EGFR mutant potency and selectivity against EGFR WT, compared with the enantiomer", "conditions": "relative to its enantiomer (compound 635 in WO 2022/066734)", "from_the_text": "as §1"}},
  "data": [
    {"smiles": "COc1c(Cl)cccc1Nc1c(-c2ccncc2C#C[C@@]2(C)CCCN2C(=O)/C=C/CN(C)C)[nH]c2cc[nH]c(=O)c12", "note": "[(I), 3-[(3-chloro-2-methoxyphenyl)amino]-2-(3-{2-[(2R)-1-[(2E)-4-(dimethylamino)but-2-enoyl]-2-methylpyrrolidin-2-yl]ethynyl}pyridin-4-yl)-1H,5H-pyrrolo[3,2-c]pyridin-4-one]", "values": [
      {"measurement": "IC50", "setting": "[1]", "result": "< 100", "unit": "nM"},
      {"measurement": "IC50", "setting": "[2]", "result": "< 100", "unit": "nM"},
      {"measurement": "IC50", "setting": "EGFR WT", "result": "≥ 1000", "unit": "nM"},
      {"measurement": "IC50", "setting": "[3]", "result": "< 100", "unit": "nM"},
      {"measurement": "IC50", "setting": "[4]", "result": "< 100", "unit": "nM"},
      {"measurement": "EGFR mutant potency and selectivity against EGFR WT", "setting": "[5]", "result": "greater than the potency and selectivity exhibited by its enantiomer"}
    ]}
  ]
}
